Patent publication US20240366589A1, “NHE3-BINDING COMPOUNDS AND METHODS FOR INHIBITING PHOSPHATE TRANSPORT” (Ardelyx, Inc., priority 2013, published 2024)

Columns and labels:
Rat NHE3 = molecular target: T1, Rat NHE3 (Rattus norvegicus, UniProt P26433); assay: Cell-based NHE3 activity under prompt conditions (OK cells, BCECF pH recovery), rat NHE3; conditions: prompt conditions
T1 construct: expressed in transfected cells; host or cells: Opossum kidney (OK) cells (ATCC), electroporation
How it was run: (§1)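 OK cells electroporated with rat or human NHE3 gene, loaded 30 min at room temperature with 5 μM BCECF-AM in NH4Cl-HEPES pH 7.4.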

Human NHE3 = molecular target: T2, Human NHE3 (Homo sapiens, UniProt P48764); assay: Cell-based NHE3 activity under prompt conditions (OK cells, BCECF pH recovery), human NHE3; conditions: prompt conditions
T2 construct: expressed in transfected cells; host or cells: Opossum kidney (OK) cells (ATCC), electroporation
T2 sequence (P48764 26-834): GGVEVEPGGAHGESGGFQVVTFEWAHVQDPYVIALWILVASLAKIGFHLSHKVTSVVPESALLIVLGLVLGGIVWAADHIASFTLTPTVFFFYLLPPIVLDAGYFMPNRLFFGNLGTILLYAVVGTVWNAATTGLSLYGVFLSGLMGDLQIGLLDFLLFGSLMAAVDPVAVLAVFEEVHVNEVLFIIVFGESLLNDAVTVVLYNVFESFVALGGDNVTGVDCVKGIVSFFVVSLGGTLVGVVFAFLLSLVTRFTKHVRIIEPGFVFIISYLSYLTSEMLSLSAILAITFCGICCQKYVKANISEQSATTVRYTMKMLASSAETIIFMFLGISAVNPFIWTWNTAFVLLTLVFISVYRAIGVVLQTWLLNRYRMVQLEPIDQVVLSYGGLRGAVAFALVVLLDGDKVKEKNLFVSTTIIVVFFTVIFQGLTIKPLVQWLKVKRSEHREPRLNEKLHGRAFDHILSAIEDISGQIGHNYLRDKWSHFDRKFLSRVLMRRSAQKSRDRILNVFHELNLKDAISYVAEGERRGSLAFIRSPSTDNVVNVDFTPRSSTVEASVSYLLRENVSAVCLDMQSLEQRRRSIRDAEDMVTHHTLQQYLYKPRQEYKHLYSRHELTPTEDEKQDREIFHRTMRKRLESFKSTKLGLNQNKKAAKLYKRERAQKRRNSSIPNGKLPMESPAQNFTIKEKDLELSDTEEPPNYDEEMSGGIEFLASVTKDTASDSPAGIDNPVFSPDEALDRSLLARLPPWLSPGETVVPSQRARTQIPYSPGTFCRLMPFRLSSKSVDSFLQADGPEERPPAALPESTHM
How it was run: as §1

[1] = test system: absorption of sodium from the intestinal lumen; assay: Inhibition of intestinal sodium absorption: urinary sodium (uNa) 16 h after single oral dose in rats; type: in vivo, rat; conditions: oral gavage, 16 h post-dose
How it was run: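 Eight-week-old Sprague-Dawley rats (n=6) given single oral gavage of compound or water vehicle in the late afternoon, then kept in metabolic cages with chow and water ad libitum. Urine collected over 16 h; sodium quantified by ion chromatography and expressed as % of vehicle mean, compared by one-way ANOVA with Dunnett's test.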

[2] = test system: absorption of sodium from the intestinal lumen; assay: Fecal form score (FFS) 16 h after oral dose in rats; type: in vivo, rat; conditions: oral gavage, 16 h post-dose, scale 1-5
How it was run: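 Eight-week-old Sprague-Dawley rats (n=6) dosed by oral gavage with compound or water vehicle between 4 and 5 PM, then housed in metabolic cages with food and water ad libitum. At 16 h, fecal form scored 1 (normal pellet) to 5 (liquid streams) by two observers; group mean reported.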

[3] = test system: phosphorus and calcium levels in the urine of rats; assay: Urinary excretion of phosphate and calcium in rats (16 h overnight urine); type: in vivo, rat; conditions: rats, oral gavage, 16 h post-dose

T1 sequence (P26433 29-831): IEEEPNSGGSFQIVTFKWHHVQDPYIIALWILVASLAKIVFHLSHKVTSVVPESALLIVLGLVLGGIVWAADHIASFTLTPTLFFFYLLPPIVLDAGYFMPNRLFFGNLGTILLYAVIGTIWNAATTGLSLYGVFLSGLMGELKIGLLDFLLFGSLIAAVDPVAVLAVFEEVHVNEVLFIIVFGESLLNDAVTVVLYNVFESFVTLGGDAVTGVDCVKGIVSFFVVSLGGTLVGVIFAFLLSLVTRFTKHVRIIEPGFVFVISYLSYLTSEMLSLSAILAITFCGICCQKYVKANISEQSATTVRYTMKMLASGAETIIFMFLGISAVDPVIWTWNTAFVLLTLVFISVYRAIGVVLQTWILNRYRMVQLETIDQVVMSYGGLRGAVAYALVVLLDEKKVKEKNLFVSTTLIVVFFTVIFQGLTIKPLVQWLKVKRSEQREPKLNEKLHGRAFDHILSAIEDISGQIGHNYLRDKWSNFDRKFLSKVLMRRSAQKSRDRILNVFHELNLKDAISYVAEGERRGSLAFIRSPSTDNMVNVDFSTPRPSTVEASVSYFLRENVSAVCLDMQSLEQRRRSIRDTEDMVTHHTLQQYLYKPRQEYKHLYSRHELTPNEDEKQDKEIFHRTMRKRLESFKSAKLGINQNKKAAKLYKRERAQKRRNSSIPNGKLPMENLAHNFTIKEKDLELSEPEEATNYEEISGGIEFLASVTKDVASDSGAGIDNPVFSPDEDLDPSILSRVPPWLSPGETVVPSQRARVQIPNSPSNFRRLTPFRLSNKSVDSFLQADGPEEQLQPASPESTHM

Row | SMILES | Prompt Rat NHE3 pIC50 (Rat NHE3) | Prompt Human NHE3 pIC50 (Human NHE3) | Urine Na % of control ([1]; dose 1 mg/kg) [%] | Urine Na % of control ([1]; dose 3 mg/kg) [%] | Urine Na % of control ([1]; dose 10 mg/kg) [%] | Fecal Form Score average ([2]; dose 1 mg/kg) | Fecal Form Score average ([2]; dose 3 mg/kg) | Fecal Form Score average ([2]; dose 10 mg/kg) | Urine P % of control ([3]; dose 1 mg/kg) [%] | Urine P % of control ([3]; dose 3 mg/kg) [%] | Urine P % of control ([3]; dose 10 mg/kg) [%] | IC50 (Rat NHE3; read-out: Prompt Rat NHE3 pIC50 (converted)) [nM]
1 | CN(C)[C@H]1Cc2c(Cl)cc(Cl)cc2[C@@H]1Oc1ccc(S(=O)(=O)NCCOCCOCCNC(=O)NCCCCNC(=O)NCCOCCOCCNS(=O)(=O)c2ccc(O[C@H]3c4cc(Cl)cc(Cl)c4C[C@@H]3N(C)C)cc2)cc1 [compound 127] | 8.20 | 8.30 | 55 | 39 | 9 | 1 | 1 | 1 | 159 | 62 | 53 | 
2 | CN(C)CC(=O)NC(CCC(=O)NCCOCCOCCNS(=O)(=O)c1cccc([C@@H]2CN(C)Cc3c(Cl)cc(Cl)cc32)c1)(CCC(=O)NCCOCCOCCNS(=O)(=O)c1cccc([C@@H]2CN(C)Cc3c(Cl)cc(Cl)cc32)c1)CCC(=O)NCCOCCOCCNS(=O)(=O)c1cccc([C@@H]2CN(C)Cc3c(Cl)cc(Cl)cc32)c1 [compound 128] | 7.10 | 8.00 | 46 | 35 |  | 1 | 2 |  | 90 | 58 |  | 
3 | CN1Cc2c(Cl)cc(Cl)cc2[C@H](c2cccc(S(=O)(=O)NCCOCCOCCNC(=O)CCC(CCC(=O)NCCOCCOCCNS(=O)(=O)c3cccc([C@@H]4CN(C)Cc5c(Cl)cc(Cl)cc54)c3)(CCC(=O)NCCOCCOCCNS(=O)(=O)c3cccc([C@@H]4CN(C)Cc5c(Cl)cc(Cl)cc54)c3)NC(=O)N(C)C)c2)C1 [compound 129] | 5.60 | 6.90 |  | 16 |  |  | 2 |  |  | 48 |  | 
4 | CNC(=O)NC(CCC(=O)NCCOCCOCCNS(=O)(=O)c1cccc([C@@H]2CN(C)Cc3c(Cl)cc(Cl)cc32)c1)(CCC(=O)NCCOCCOCCNS(=O)(=O)c1cccc([C@@H]2CN(C)Cc3c(Cl)cc(Cl)cc32)c1)CCC(=O)NCCOCCOCCNS(=O)(=O)c1cccc([C@@H]2CN(C)Cc3c(Cl)cc(Cl)cc32)c1 [compound 130] | 6.10 | 7.20 |  | 18 |  |  | 2 |  |  | 70 |  | 
5 | CN1Cc2c(Cl)cc(Cl)cc2[C@H](c2cccc(S(=O)(=O)NCCOCCOCCN(C)C(=O)NCCCN(CCCNC(=O)N(C)CCOCCOCCNS(=O)(=O)c3cccc([C@@H]4CN(C)Cc5c(Cl)cc(Cl)cc54)c3)CCCNC(=O)N(C)CCOCCOCCNS(=O)(=O)c3cccc([C@@H]4CN(C)Cc5cc(Cl)cc(Cl)c54)c3)c2)C1 [compound 131] |  | 7.20 |  | 38 |  |  | 2 |  |  | 68 |  | 794
6 | CCN(CCOCCOCCNC(=O)NCCCN(CCCNC(=O)NCCOCCOCCN(CC)S(=O)(=O)c1cccc([C@@H]2CN(C)Cc3c(Cl)cc(Cl)cc32)c1)CCCNC(=O)NCCOCCOCCN(CC)S(=O)(=O)c1cccc([C@@H]2CN(C)Cc3c(Cl)cc(Cl)cc32)c1)S(=O)(=O)c1cccc([C@@H]2CN(C)Cc3c(Cl)cc(Cl)cc32)c1 [compound 132] | 6.00 | 7.70 |  | 65 |  |  | 1 |  |  | 88 |  | 
7 | CN1Cc2c(Cl)cc(Cl)cc2[C@H](c2cccc(S(=O)(=O)NCCOCCOCCNC(=O)CCC(CCC(=O)NCCOCCOCCNS(=O)(=O)c3cccc([C@@H]4CN(C)Cc5c(Cl)cc(Cl)cc54)c3)(CCC(=O)NCCOCCOCCNS(=O)(=O)c3cccc([C@@H]4CN(C)Cc5c(Cl)cc(Cl)cc54)c3)NC(N)=O)c2)C1 [compound 133] | 6.50 | 7.30 |  | 23 |  |  | 2 |  |  | 67 |  | 
8 | CN1Cc2c(Cl)cc(Cl)cc2[C@H](c2cccc(S(=O)(=O)N(C)CCOCCOCCNC(=O)CCN(CCC(=O)NCCOCCOCCN(C)S(=O)(=O)c3cccc([C@@H]4CN(C)Cc5c(Cl)cc(Cl)cc54)c3)CCC(=O)NCCOCCOCCN(C)S(=O)(=O)c3cccc([C@@H]4CN(C)Cc5c(Cl)cc(Cl)cc54)c3)c2)C1 [compound 134] | 6.50 | 6.50 |  | 64 |  |  | 1 |  |  | 72 |  | 
9 | N[C@@H]1CCCN([C@H]2Cc3c(Cl)cc(Cl)cc3[C@@H]2Oc2ccc(S(=O)(=O)NCCOCCOCCNC(=O)NCCCCNC(=O)NCCOCCOCCNS(=O)(=O)c3ccc(O[C@H]4c5cc(Cl)cc(Cl)c5C[C@@H]4N4CCC[C@@H](N)C4)cc3)cc2)C1 [compound 135] | 7.40 | 8.45 | 100 | 94 | 58 | 1 | 1 | 2 | 92 | 44 | 85 | 
10 | CN(C)[C@H]1Cc2ccc(F)cc2[C@@H]1Oc1ccc(S(=O)(=O)NCCOCCOCCNC(=O)NCCCCNC(=O)NCCOCCOCCNS(=O)(=O)c2ccc(O[C@H]3c4cc(F)ccc4C[C@@H]3N(C)C)cc2)cc1 [compound 136] | <5.00 | 7.70 |  |  | 104 |  |  | 1 |  |  | 93 | 
11 | CN1Cc2c(Cl)cc(Cl)cc2[C@H](c2cccc(S(=O)(=O)NCCOCCOCCNC(=O)CCC(CCC(=O)NCCOCCOCCNS(=O)(=O)c3cccc([C@@H]4CN(C)Cc5c(Cl)cc(Cl)cc54)c3)(CCC(=O)NCCOCCOCCNS(=O)(=O)c3cccc([C@@H]4CN(C)Cc5c(Cl)cc(Cl)cc54)c3)NC(=O)CCCC(=O)O)c2)C1 [compound 137] | 7.30 | 7.30 | 39 | 28 |  | 1 | 3 |  | 137 | 139 |  | 
12 | CN(CC(=O)O)CC(=O)NC(CCC(=O)NCCOCCOCCNS(=O)(=O)c1cccc([C@@H]2CN(C)Cc3c(Cl)cc(Cl)cc32)c1)(CCC(=O)NCCOCCOCCNS(=O)(=O)c1cccc([C@@H]2CN(C)Cc3c(Cl)cc(Cl)cc32)c1)CCC(=O)NCCOCCOCCNS(=O)(=O)c1cccc([C@@H]2CN(C)Cc3c(Cl)cc(Cl)cc32)c1 [compound 138] | 7.30 | 7.30 |  | 37 |  |  | 2 |  |  | 78 |  | 
13 | CN1Cc2c(Cl)cc(Cl)cc2[C@H](c2cccc(S(=O)(=O)NCCOCCOCCNC(=O)CCC(CCC(=O)NCCOCCOCCNS(=O)(=O)c3cccc([C@@H]4CN(C)Cc5c(Cl)cc(Cl)cc54)c3)(CCC(=O)NCCOCCOCCNS(=O)(=O)c3cccc([C@@H]4CN(C)Cc5c(Cl)cc(Cl)cc54)c3)NC(=O)COCC(=O)O)c2)C1 [compound 139] | 7.60 | 7.80 | 80 | 27 |  | 1 | 3 |  | 63 | 45 |  | 
14 | O=C(NCCCCNC(=O)NCCOCCOCCNS(=O)(=O)c1ccc(O[C@H]2c3cc(F)ccc3C[C@@H]2N2CCCCC2)cc1)NCCOCCOCCNS(=O)(=O)c1ccc(O[C@H]2c3cc(F)ccc3C[C@@H]2N2CCCCC2)cc1 [compound 140] | 8.90 | 7.70 |  |  | 110 |  |  | 1 |  |  | 121 | 
